Measurements published in patent US9815851B2, “Pyrrolo carboxamides as modulators of orphan nuclear receptor RAR-related orphan receptor-gamma (RORγ, NR1F3) activity and for the treatment of chronic inflammatory and autoimmune diseases” (PHENEX PHARMACEUTICALS AG, priority 2011, dated 2017).
Where two headings read alike, the source gives them in different places.

How the values were obtained:
[1] = biological target: T1, RORγ ligand binding domain (LBD) (Homo sapiens, UniProt P51449); test: TR-FRET Activity Assay (ligand sensing, RORγ-LBD / coactivator peptide interaction, LANCE); format: biochemical
T1 construct: made in house; host or cells: E. coli BL-21 (BL3), vector pDEST15
T1 sequence (P51449 269-508 limits assumed): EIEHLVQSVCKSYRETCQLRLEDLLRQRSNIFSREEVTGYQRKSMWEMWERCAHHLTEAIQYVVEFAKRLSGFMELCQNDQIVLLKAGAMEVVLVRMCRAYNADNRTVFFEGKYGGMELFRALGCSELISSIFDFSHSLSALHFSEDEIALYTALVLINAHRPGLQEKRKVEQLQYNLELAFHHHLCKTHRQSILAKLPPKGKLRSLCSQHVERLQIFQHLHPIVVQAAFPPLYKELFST

RORγ = biological target: T2, RORγ (UniProt P51449); test: RORγ Gal4 Reporter Gene Assay in 293T cells (firefly and renilla luciferase); format: cell-based, human
T2 sequence (P51449 1-518): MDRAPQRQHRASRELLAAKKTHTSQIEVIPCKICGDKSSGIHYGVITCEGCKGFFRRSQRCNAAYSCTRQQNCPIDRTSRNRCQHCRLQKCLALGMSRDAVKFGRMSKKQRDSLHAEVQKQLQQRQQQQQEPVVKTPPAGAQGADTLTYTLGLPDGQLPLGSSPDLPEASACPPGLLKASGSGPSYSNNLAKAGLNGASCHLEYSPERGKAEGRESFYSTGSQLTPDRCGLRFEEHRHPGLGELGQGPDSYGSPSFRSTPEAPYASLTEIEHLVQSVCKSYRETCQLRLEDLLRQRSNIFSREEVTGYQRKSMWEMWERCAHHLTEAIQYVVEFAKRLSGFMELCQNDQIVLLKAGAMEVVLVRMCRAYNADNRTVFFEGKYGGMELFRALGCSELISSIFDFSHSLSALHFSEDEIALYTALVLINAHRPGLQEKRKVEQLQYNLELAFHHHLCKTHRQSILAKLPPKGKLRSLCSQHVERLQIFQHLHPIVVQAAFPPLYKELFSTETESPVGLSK

[2] = first value of the cell FRET/FF/REN, TR-FRET activity assay, read-out: pIC50 (FRET) (converted)
[3] = second value of the cell, Gal4 reporter gene assay in 293T cells, firefly luciferase
[4] = third value of the cell, Gal4 reporter gene assay in 293T cells, renilla normalised luciferase

Row | IC50 [1, 2] [µM] | pIC50 (FF) (RORγ; [3]) | pIC50 (REN) (RORγ; [4]) | SMILES | IC50 [1] [µM] | pIC50 (FF) (RORγ) | pIC50 (REN) (RORγ)
1 | 1.58 | 7.0 | 7.2 | Cc1c(C(=O)NCCC(C)(C)C(=O)O)cc(-c2ccc(S(=O)(=O)NC(C)(C)C)c(C(C)(C)C)c2)n1CC1CCCCC1 [17/163] | – | – | –
2 | 1.26 | 6.4 | 6.5 | COC1(c2cc(-c3cc(C(=O)NC4CCOCC4)c(C)n3CC3CCCCC3)ccc2S(=O)(=O)NC(C)(C)C)CC1 [17/164] | – | – | –
3 | – | – | – | Cc1c(C(=O)NC2CCOCC2)cc(-c2ccc(S(=O)(=O)NC(C)(C)C)c(OCC(C)(C)C)c2)n1CC1CCCCC1 [17/165] | 5.01 | 5.3/6.5/6.9 | 5.3/6.5/6.9
4 | 0.158 | 7.8 | 8.0 | Cc1c(C(=O)NC2CCOCC2)cc(-c2ccc(S(=O)(=O)NC(C)(C)C)c(OC(F)(F)F)c2)n1CC1CCCCC1 [17/166] | – | – | –
5 | 0.794 | 6.6 | 6.8 | Cc1c(C(=O)NCCC(C)(C)C(=O)O)cc(-c2ccc(S(=O)(=O)NC(C)(C)C)c(OC(F)F)c2)n1CC1CCCCC1 [17/167] | – | – | –
6 | 0.794 | 6.7 | 6.7 | CC(C)(C)NS(=O)(=O)c1ccc(-c2cc(C(=O)NCCC(C)(C)C(=O)O)c(C(N)=O)n2CC2CCCCC2)cc1C(F)(F)F [17/169] | – | – | –
7 | 0.316 | 6.8 | 7.0 | Cc1c(C(=O)N[C@H]2C[C@](C)(C(=O)O)C2)cc(-c2ccc(S(=O)(=O)NC(C)(C)C)c(C(F)F)c2)n1CC1CCCCC1 [17/170] | – | – | –
8 | 0.398 | 7.5 | 7.5 | Cc1c(C(=O)NCCC(C)(C)C(=O)O)cc(-c2ccc(S(=O)(=O)NC(C)(C)C)c(OC(F)(F)F)c2)n1CC1CCCCC1 [17/172] | – | – | –
9 | 0.316 | 7.3 | 7.3 | Cc1c(C(=O)NCC(C)(C)C(=O)O)cc(-c2ccc(S(=O)(=O)NC(C)(C)C)c(OC(F)(F)F)c2)n1CC1CCCCC1 [17/173] | – | – | –
10 | 0.2 | 7.1 | 7.1 | Cc1c(C(=O)N[C@H]2C[C@H](C(=O)O)C2)cc(-c2ccc(S(=O)(=O)NC(C)(C)C)c(OC(F)(F)F)c2)n1CC1CCCCC1 [17/174] | – | – | –
11 | 0.794 | 6.6 | 6.7 | Cc1c(C(=O)NC2CCOCC2)cc(-c2ccc(S(=O)(=O)NC(C)(C)C)c(C(F)(F)F)c2)n1C1CC12CCCC2 (stereo not drawn) [17/175] | – | – | –
12 | 0.251 | 7.1 | 7.0 | Cc1c(C(=O)NC2CCOCC2)cc(-c2ccc(S(=O)(=O)NC(C)(C)C)c(C(F)(F)F)c2)n1CC1(C)CCCC1 [17/176] | – | – | –
13 | 0.158 | 7.3 | 7.4 | Cc1c(C(=O)NC2CCOCC2)cc(-c2ccc(S(=O)(=O)NC(C)(C)C)c(C(F)(F)F)c2)n1CC1CC(C)C1 (stereo not drawn) [17/177] | – | – | –
14 | 0.794 | 7.9 | 7.9 | Cc1c(C(=O)NCCc2noc(=O)[nH]2)cc(-c2cc(C(C)(C)C)cc(C3(C)CC3)c2)n1CC1CCCCC1 [17/178] | – | – | –
15 | 0.398 | 6.1 | 6.1 | Cc1c(C(=O)N2CC(CC(=O)O)C2)cc(-c2ccc(S(=O)(=O)NC(C)(C)C)c(C(F)(F)F)c2)n1CC1CCCCC1 [17/179] | – | – | –
16 | 0.631 | 7.1 | 7.2 | Cc1c(C(=O)N2CC(C(C)(C)C(=O)O)C2)cc(-c2ccc(S(=O)(=O)NC(C)(C)C)c(C(F)(F)F)c2)n1CC1CCCCC1 [17/180] | – | – | –
17 | – | – | – | Cc1c(C(=O)NC23CCC(C(=O)O)(CC2)CC3)cc(-c2ccc(S(=O)(=O)NC(C)(C)C)c(C(F)(F)F)c2)n1CC1CCCCC1 [17/182] | 0.501 | 6.3/7.8/7.9 | 6.3/7.8/7.9
18 | 0.2 | 7.9 | 8.1 | Cc1c(C(=O)NC2CCOCC2)cc(-c2ccc(S(=O)(=O)NC(C)(C)C)c3sccc23)n1CC1CCCCC1 [17/183] | – | – | –
19 | 0.794 | 6.9 | 7.1 | Cc1c(C(=O)N[C@H]2C[C@H](C(=O)O)C2)cc(-c2ccc(S(=O)(=O)NC(C)(C)C)c3sccc23)n1CC1CCCCC1 [17/184] | – | – | –

Row | IC50 [1, 2] [µM] | pIC50 (FF) (RORγ; [3]) | pIC50 (REN) (RORγ; [4]) | SMILES | IC50 [1] [µM] | pIC50 (FF) (RORγ) | pIC50 (REN) (RORγ)
20 | – | – | – | Cc1c(C(=O)NC2CCOCC2)cc(-c2cc(C(C)(C)O)cc3ccccc23)n1CC1CCCCC1 [17/185] | 0.501 | 6.3/6.4/6.2 | 6.3/6.4/6.2
21 | 15.8 | < 4.7 | < 4.7 | Cc1c(C(=O)N[C@H]2C[C@H](C(=O)O)C2)cc(-c2cc(C(C)(C)O)cc3ccccc23)n1CC1CCCCC1 [17/187] | – | – | –
22 | 5.01 | 6.3 | 6.3 | Cc1c(C(=O)N[C@H]2C[C@H](C(=O)O)C2)cc(-c2cc(C(=O)NC(C)(C)C)cc3ccccc23)n1CC1CCCCC1 [17/189] | – | – | –
23 | 1.58 | 6.5 | 6.6 | Cc1c(C(=O)NC2CCOCC2)cc(-c2cnc(S(=O)(=O)NC(C)(C)C)c(C(F)(F)F)c2)n1CC1CCCCC1 [17/190] | – | – | –
24 | – | – | – | Cc1c(C(=O)NCC(C)(C)O)cc(-c2cc(C(C)(C)C)cc(C(C)(C)C)c2OC(F)F)n1CC1CCCCC1 [17/191] | 1.26 | 5.9/7.0/6.9 | 5.9/7.0/6.9
25 | 1.58 | 6.5 | 6.4 | Cc1cc(C(C)(C)C)cc(-c2cc(C(=O)NCC(C)(C)O)c(C)n2CC2CCCCC2)c1OC(F)F [17/192] | – | – | –
26 | 2.51 | 6.9 | 7.0 | Cc1c(C(=O)N[C@H]2C[C@H](C(=O)O)C2)cc(-c2cc(C(C)(C)C)cc(C(C)(C)C)c2OC(F)F)n1CC1CCCCC1 [17/193] | – | – | –
27 | 12.6 | 6.4 | 6.5 | Cc1cc(C(C)(C)C)cc(-c2cc(C(=O)N[C@H]3C[C@H](C(=O)O)C3)c(C)n2CC2CCCCC2)c1OC(F)F [17/194] | – | – | –
28 | 0.631 | 7.6 | 7.6 | Cc1c(C(=O)N[C@H]2C[C@H](C(=O)O)C2)cc(-c2cc(OCC(C)(C)C)nc(C(C)(C)C)c2)n1CC1CCCCC1 [17/195] | – | – | –
29 | 3.98 | 7.0 | 7.0 | Cc1c(C(=O)N[C@H]2C[C@H](C(=O)O)C2)cc(-c2cc(NCC(C)(C)C)nc(C(C)(C)C)c2)n1CC1CCCCC1 [17/196] | – | – | –
30 | 0.794 | 7.9 | 7.7 | CCC(C)(C)NS(=O)(=O)c1ccc(-c2cc(C(=O)N[C@H]3C[C@H](C(=O)O)C3)c(C)n2CC2CCCCC2)c(Cl)c1C [17/197] | – | – | –
31 | – | – | – | Cc1c(C(=O)N2CCOCC2)cc(-c2ccc(S(=O)(=O)NC(C)(C)C)c(C(F)(F)F)c2)n1CC1CCCCC1 [17/198] | 0.501 | 6.3/6.8/6.9 | 6.3/6.8/6.9
32 | 0.631 | 6.6 | 6.7 | Cc1c(C(=O)N2CCS(=O)(=O)CC2)cc(-c2ccc(S(=O)(=O)NC(C)(C)C)c(C(F)(F)F)c2)n1CC1CCCCC1 [17/199] | – | – | –
33 | 0.501 | 6.9 | 6.9 | Cc1c(C(=O)NCC(C)(C)C(=O)O)cc(-c2ccc(S(=O)(=O)NC(C)(C)C)c(C(F)(F)F)c2)n1CC1CCCCC1 [17/200] | – | – | –
34 | 0.794 | 5.7 | 5.7 | Cc1c(C(=O)NCC2(C(=O)O)CCOCC2)cc(-c2ccc(S(=O)(=O)NC(C)(C)C)c(C(F)(F)F)c2)n1CC1CCCCC1 [17/201] | – | – | –
35 | 0.316 | 7.7 | 7.7 | Cc1c(C(=O)NCC(C)(C)C(N)=O)cc(-c2ccc(S(=O)(=O)NC(C)(C)C)c(C(F)(F)F)c2)n1CC1CCCCC1 [17/202] | – | – | –
36 | 0.501 | 7.8 | 7.8 | Cc1c(C(=O)NCC2(C(N)=O)CCOCC2)cc(-c2ccc(S(=O)(=O)NC(C)(C)C)c(C(F)(F)F)c2)n1CC1CCCCC1 [17/203] | – | – | –
37 | 0.794 | 6.7 | 6.8 | CNC(=O)C(C)(C)CNC(=O)c1cc(-c2ccc(S(=O)(=O)NC(C)(C)C)c(C(F)(F)F)c2)n(CC2CCCCC2)c1C [17/204] | – | – | –
38 | 0.794 | 6.9 | 7.0 | CNC(=O)C1(CNC(=O)c2cc(-c3ccc(S(=O)(=O)NC(C)(C)C)c(C(F)(F)F)c3)n(CC3CCCCC3)c2C)CCOCC1 [17/205] | – | – | –

Row | SMILES | IC50 [1, 2] [µM] | pIC50 (FF) (RORγ; [3]) | pIC50 (REN) (RORγ; [4]) | IC50 [1] [µM] | pIC50 (FF) (RORγ) | pIC50 (REN) (RORγ)
39 | COC(C)(c1cc(-c2cc(C(=O)NC3CCOCC3)c(C)n2CC2CCCCC2)cc(C(C)(C)C)c1)C(F)(F)F (stereo not drawn) [17/186] | 0.398 | 6.9 | 7.1 | – | – | –
40 | Cc1c(C(=O)NC2CCOCC2)cc(-c2cc(C(=O)NC(C)(C)C)cc3ccccc23)n1CC1CCCCC1 [17/188] | 0.794 | 6.8 | 6.9 | – | – | –
